Results: patent publication US20230202980A1, “N-(2-Aminophenyl)-Prop-2-Enamide Derivatives, and Uses Thereof in the Treatment of Cancer” (National University of Singapore, priority 2019, published 2023)
Each block holds one molecule with its values, some of them ahead of it.

Columns and labels:
[1] = tested on: SNU-398 (SALL4 high) cells; experiment: SALL4 high/low phenotypic screen (cell viability, CellTiter-Glo), SALL4 high cells; type: cell-based; conditions: for IC50: Homo sapiens, SNU-398, read-out: IC50 in high SALL4 SNU398 cells; for IC50 / IC50 in high SALL4 SNU398 cells: SALL4 high/low phenotypic screen, 72 hrs; for fold less potent than the most active compounds: SALL4 high SNU398 cells
Procedure: (§1) SNU-387 empty vector, Tg:SALL4A, and Tg:SALL4B expressing isogenic cell lines were generated by transducing WT SNU-387 cells with empty vector, SALL4A or SALL4B FUW-Luc-mCh-puro lentiviral constructs^1. Cells were plated in 50 µl of RPMI culture media in 384-well white flat-bottom plates (Coming) and incubated at 37° C. in a humidified atmosphere of 5% CO2 overnight. Cell numbers per well were 1500 for SNU-398, and 750 for SNU-387 and SNU-387 isogenic lines. After overnight incubation, varying concentrations of compounds 1-80 were added to cells with multichannel electronic pipettes (Rainin). Cells were then incubated for 72 hrs at 37° C. in a humidified atmosphere of 5% CO2 before 10 µl of CellTiter-Glo reagent was added to the wells with the MultiFlo Microplate Dispenser (BioTek). Cells were incubated at room temperature for a mininuun of 10 minutes after which luminescence readings were recorded by an Infinite M1000 Microplate Reader (Tecan).
This testing was based on SALL4 high/low phenotypic screen as described herein. IC50 values noted for the compounds/groups above are based on ICso in high SALL4 SNU398 cells.
ALPHA assay measures binding between SALL4 and RBBp4, an inhibitor could block the binding and reflected in low reading of the ALPHA assay. FP assay also measures binding between SALL4 and RBBp4, an inhibitor results in […] reading. Cell-based assays are measuring cell viability with different concentration of compounds. Cell based 1299 refers to cell viability assay using H1299 cells; Cell-based SNU387 refers to cell viability assay using SNU387 cells; Cell based assay-SNU-398 refers to cell viability assay using SNU398 cells; Cell based MDA-MB231 refers to cell viability assay using MDA-MB231 cells.

SALL4 high tumor = experiment: In vivo xenotransplant testing in mice; conditions: treated mice, P<0.05
[2] = Metabolic stability using liver microsomes; type: in vitro ADME; conditions: 1 µM, 3.33 mg/ml liver microsomes, 2.5 mM NADPH
Excerpt: (§2) Pan-HDAC binding assay measures HDAC inhibitory activity of a compound. Tubulin Polymerisation inhibition assays measure inhibition activity of a compound towards tubulin polymerization. SALL4 protein expression down regulation assay changed to western blot analysis, SALL4 RNA expression down regulation assay changed to real-time PCR assay. Permeability assay measures the (PAMPA) measures permeability of a compound across an artificial membrane. The microsomal stability assay measures rate of disappearance of a test compound over time in liver microsomes. In vivo PK assay measures biodistribution of the test compound in mice.
1 µM of compound 6 was incubated with 3.33 mg/ml liver microsomes and 2.5 mM NADPH for 0, 5, 10, 30 and 60 minutes. The mixture were subjected to LC-MS/MS to measure remaining compound after the incubation.

SALL4 1-300 protein = biological target: T1, SALL4 1-300 protein (Homo sapiens, UniProt Q9UJQ4); experiment: Thermal Shift Assay (fluorescence-based binding assay); conditions: SALL4 1-300 with 100 mM compound
T1 sequence (Q9UJQ4 1-300): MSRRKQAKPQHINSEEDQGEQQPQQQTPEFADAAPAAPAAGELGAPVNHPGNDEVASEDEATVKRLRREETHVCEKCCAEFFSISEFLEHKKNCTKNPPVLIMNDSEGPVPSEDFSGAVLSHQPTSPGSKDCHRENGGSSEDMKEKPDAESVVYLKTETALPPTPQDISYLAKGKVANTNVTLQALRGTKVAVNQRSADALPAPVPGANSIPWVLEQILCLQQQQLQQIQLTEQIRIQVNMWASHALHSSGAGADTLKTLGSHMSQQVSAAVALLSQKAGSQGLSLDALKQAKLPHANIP
Excerpt: In the upper panel of FIG. 7, a fluorescence-based binding assay named Thermal Shift Assay was used to assess the binding of compound 6 to SALL4 1-300 protein based on changes in unfolding transition. […] In the lower panel of FIG. 7, compound 6 binding to SALL4 was accessed by 1H NMR Experiments and Saturation Transfer Difference (STD) using ^15N SALL4 1-300 and Compound 6. The samples were screened using Bruker BioSpin AVANCE II 600 MHz spectrometer equipped with a CPPTCI{ 19F} cryoprobe and SampleJet auto-sampler. Compound 6 weak binding event to SALL4 1-300 was identified based on the increase in transverse relaxation rate (R2) observed in the presence of SALL4 1-300 protein.

[3] = Pharmacokinetic study, whole blood concentration by LC-MS/MS; type: in vivo, Swiss albino mice
Procedure: Compound 6 was dissolved in water containing 3% DMSO and 10% hydroxyl propyl-b-cyclodextrin (EncapsinTM) for the i.v. dose, and in water containing 5% DMSO and 9.5% Encapsin for the oral dose. Blood samples were collected at 0.083, 0.25, 0.5, 1, 2, 4, 6, 8 and 24 hrs. The whole blood concentration was measured by LC-MS/MS. From the oral route, 90% of compound 6 was cleared at 2 hrs. For the intravenous route, 90% of compound 6 was cleared at 4 hrs.

SALL4 RNA = SALL4 RNA expression down regulation (Q-PCR) in H661 cells; type: cell-based; conditions: 48 hrs
Procedure: Cells were treated with compound 6 at 1 µM and 2.5 µM. Amounts for other cmpds are shown. Cells were harvested at 48 hrs and the cell lysates were subjected to western blot analysis and Q-PCR analysis for SALL4 protein and RNA level respectively. […] As shown in the lower panel of FIG. 6, using Q-PCR, it was shown that SALL4 RNA level was reduced by Compound 6 in H661 cells.

[4] = tested on: SNU-387 (SALL4 low) cells; experiment: SALL4 high/low phenotypic screen (cell viability, CellTiter-Glo), SALL4 low cells; type: cell-based; conditions: Example 1, see FIG. 2
Procedure: as §1
ALPHA assay measures binding between SALL4 and RBBp4, an inhibitor could block the binding and reflected in low reading of the ALPHA assay. FP assay also measures binding between SALL4 and RBBp4, an inhibitor results in […] reading. Cell-based assays are measuring cell viability with different concentration of compounds. […]

PAMPA permeability assay = type: in vitro ADME; conditions: 50 µM, pION buffer, 4 hours
Excerpt: as §2
50 µM of Compound 6 prepared in pION buffer was added to bottom of UV plate. GIT-0 solution was added and the solution was incubated for 4 hours. The plate spectrum was read using spectrophotometer in scanning mode from 200 nm to 500 nm using PAMPA pION software.

- IC50 [1]: 150 to 1000 nM
SMILES: COc1ccc(N)c(NC(=O)/C=C/c2cccnc2Nc2cc(OC)c(OC)c(OC)c2)c1

- IC50 [1]: 150 to 1000 nM
SMILES: COc1cc(Nc2ncccc2/C=C/C(=O)Nc2cc(C)ccc2N)cc(OC)c1OC

- IC50 [1]: 150 to 1000 nM
SMILES: COc1cc(Nc2ncccc2/C=C/C(=O)Nc2cc(Cl)c(Cl)cc2N)cc(OC)c1OC

- IC50 [1]: ~2000 nM
SMILES: COc1ccc(Nc2ncccc2/C=C/C(=O)Nc2cc(C)ccc2N)cc1
- fold less potent than the most active compounds [1]: about 10 fold

- IC50 [1]: ~25000 nM
SMILES: COc1ccc(N)c(NC(=O)/C=C/c2cccnc2Nc2ccc(C(F)(F)F)cc2)c1
- fold less potent than the most active compounds [1]: about 100 fold

- IC50 in high SALL4 SNU398 cells [1]: inactive
SMILES: Nc1ccc(F)cc1NC(=O)c1cccnc1Nc1ccc(F)cc1

- IC50 in high SALL4 SNU398 cells [1]: inactive
SMILES: Nc1ccc(Cl)cc1NC(=O)c1cccnc1Nc1ccc(F)cc1

SMILES: COc1cc(Nc2ncccc2/C=C/C(=O)Nc2ccc(Cl)cc2N)cc(OC)c1OC [Cmpd 6]
- activity in high SALL4 cells ([1]; Example 1, see FIG. 2): sub-micromolar
- selectivity between SALL4 low and SALL4 high cells (FIG. 2) ([1]; SALL4 high vs SALL4 low cells): excellent
- EC50 / potency (FIG. 2) ([1]; cell-based screening, SALL4 high cells): excellent
- xenograft size (SALL4 high tumor): significant (P<0.05) smaller
- xenograft weight (SALL4 high tumor): significant (P<0.05) smaller
- status in liver microsome assay (printed: permeability status) [2]: medium
- metabolic stability in liver microsomes, %QH ([2]; 0-60 minutes): 45.88 %QH
- melting shift (SALL4 1-300 protein): 4.7 °C
- compound cleared from whole blood ([3]; intravenous 5 mg/kg, at 4 hrs): 90%
- compound cleared from whole blood ([3]; oral 15 mg/kg, at 2 hrs): 90%
- SALL4 RNA level (Q-PCR) (SALL4 RNA): reduced
- low SALL4 cell inhibition, concentration [4]: high micromolar
- permeability in PAMPA assay (PAMPA permeability assay): high

SMILES: COc1cc(Nc2ncccc2/C=C/C(=O)Nc2ccc(Cl)cc2N)cc(OC)c1OC [drawing 157]
- IC50 [1]: 150 to 1000 nM
